Each structure is given as a SMILES string.

T1 sequence (P22001 whole entry): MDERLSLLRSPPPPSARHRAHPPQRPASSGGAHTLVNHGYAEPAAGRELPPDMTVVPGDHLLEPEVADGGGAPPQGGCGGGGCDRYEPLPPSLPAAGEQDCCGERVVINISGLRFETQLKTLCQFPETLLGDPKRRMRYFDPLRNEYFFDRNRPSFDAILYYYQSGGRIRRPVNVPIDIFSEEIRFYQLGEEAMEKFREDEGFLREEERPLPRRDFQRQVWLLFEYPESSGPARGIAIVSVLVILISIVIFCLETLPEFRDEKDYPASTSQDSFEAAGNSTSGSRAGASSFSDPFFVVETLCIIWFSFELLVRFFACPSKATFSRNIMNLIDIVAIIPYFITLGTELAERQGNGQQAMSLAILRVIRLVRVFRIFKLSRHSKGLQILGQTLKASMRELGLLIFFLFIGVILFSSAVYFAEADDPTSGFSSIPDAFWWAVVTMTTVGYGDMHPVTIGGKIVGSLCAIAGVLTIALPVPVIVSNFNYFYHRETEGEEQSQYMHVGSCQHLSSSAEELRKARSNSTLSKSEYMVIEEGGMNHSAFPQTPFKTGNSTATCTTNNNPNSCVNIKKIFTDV

The test addresses T1, human Kv1.3 ion channel (Homo sapiens, UniProt P22001).
T1 construct: Human Jurkat cells (which endogenously express hKv1.3) or Chinese Hamster Ovary (CHO) cells stably transfected with hKv1.3 were used; endogenous in cells; host or cells: Human Jurkat cells (endogenous) or CHO cells stably transfected with hKv1.3
Nature of the test: Inhibition of Kv1.3 currents, planar patch clamp. The format is cell-based. Particulars: Human Jurkat cells or CHO cells stably transfected with hKv1.3; averaged dose response data from 3 or more cells. The method, then: Potency of compounds to inhibit the human Kv1.3 ion channel was determined as follows:
EC50 values for inhibition of Kv1.3 currents were determined by the method according to Schmitz et al (2005) Molecular Pharmacology 68, 1254-1270 with the following differences: • 1. Human Jurkat cells (which endogenously express hKv1.3) or Chinese Hamster Ovary (CHO) cells stably transfected with hKv1.3 were used in place of transfected rat L929 cells. • 2. All electrophysiology was performed using planar patch clamp (Port-A-Patch, Nanion Technologies Gmbh, Munich) in contrast to conventional patch clamp. • 3. EC50 values shown were determined from averaged dose response data obtained from 3 or more cells.
(In general: The patch-clamp technique gives a direct electrical read-out from membranes.)
As for `COc1c(Cl)c(C)c(C(C)=O)c(OCCN2CC(O)C2)c1OCCCc1ccccc1` [Example 38, 1-[3-Chloro-6-[2-(3-hydroxy-azetidin-1-yl)-ethoxy]-4-methoxy-2-methyl-5-(3-phenyl-propoxy)-phenyl]-ethanone], the EC50 is greater than 300 nM.
The result for `COc1c(Cl)c(C)c(C(C)=O)c(OCCN2CCOC[C@@H]2C)c1OCCC(C)c1ccc(F)cc1` (stereo partly drawn) [Example 42, 1-{3-Chloro-5-[3-(4-fluoro-phenyl)-butoxy]-4-methoxy-2-methyl-6-[2-((S)-3-methyl-morpholin-4-yl)-ethoxy]-phenyl}-ethanone] reads 50 to 150 nM.
For `COc1c(Cl)c(C)c(C(C)=O)c(OCCNC2CCCC2)c1OCCC(C)c1ccc(F)cc1` (centres unmarked) [Example 9, 1-[3-Chloro-6-(2-cyclopentylamino-ethoxy)-5-[3-(4-fluoro-phenyl)-butoxy]-4-methoxy-2-methyl-phenyl]-ethanone] the value was 50 to 150 nM; for `COc1c(Cl)c(C)c(C(C)=O)c(OCCN2CCC(O)CC2)c1OCCC(C)c1ccc(F)cc1` (centres unmarked) [Example 14, 1-{3-Chloro-5-[3-(4-fluoro-phenyl)-butoxy]-6-[2-(4-hydroxy-piperidin-1-yl)-ethoxy]-4-methoxy-2-methyl-phenyl}-ethanone], 50 to 150 nM.
For the compound `COc1c(Cl)c(C)c(C(C)=O)c(OCCN2CCOCC2)c1OCCCc1ccc(F)cc1` [Example 1f, 1-(3-Chloro-5-(3-(4-fluorophenyl)propoxy)-4-methoxy-2-methyl-6-(2-morpholinoethoxy)phenyl)ethanone], the EC50 was in the range of 50 to 150 nM.
`COc1c(Cl)c(C)c(C(C)=O)c(OCCN(C)C)c1OCCC(C)c1ccc(F)cc1` (centres unmarked) [Example 40, 1-{3-Chloro-6-(2-dimethylamino-ethoxy)-5-[3-(4-fluoro-phenyl)-butoxy]-4-methoxy-2-methyl-phenyl}-ethanone] gave an EC50 of 50 to 150 nM.
The result for `COc1c(Cl)c(C)c(C(C)=O)c(OCCNC2CCCC2)c1OCCCc1ccc(F)cc1` [Example 2, 1-(3-Chloro-6-(cyclopentylamino)ethoxy)-5-(3-(4-fluorophenyl)propoxy-4-methoxy-2-methylphenyl)ethanone] reads less than 50 nM.
For `COc1cc(C)c(C(C)=O)c(OCCN2CCOCC2)c1OCCCc1ccccc1` [Example 33b, 1-[4-Methoxy-6-methyl-2-(2-morpholin-4-yl-ethoxy)-3-(3-phenyl-propoxy)-phenyl]-ethanone] the value was 150 to 300 nM; for `COc1c(C)c(C)c(C(C)=O)c(OCCN2CCOCC2)c1OCCC(C)c1ccc(F)cc1` (centres unmarked) [Example 5, 1-[3-[3-(4-Fluoro-phenyl)-butoxy]-4-methoxy-5,6-dimethyl-2-(2-morpholin-4-yl-ethoxy)-phenyl]-ethanone], less than 50 nM.
For `COc1c(C)c(C)c(C(C)=O)c(OCCc2ccccn2)c1OCCC(C)c1ccc(F)cc1` (centres unmarked) [Example 4f, 1-[3-[3-(4-Fluoro-phenyl)-butoxy]-4-methoxy-5,6-dimethyl-2-(2-pyridin-2-yl-ethoxy)-phenyl]-ethanone] the value was less than 50 nM; for `COc1c(Cl)c(C)c(C(C)=O)c(OCCN2CC(F)(F)C2)c1OCCCc1ccccc1` [Example 35, 1-[3-Chloro-6-[2-(3,3-difluoro-azetidin-1-yl)-ethoxy]-4-methoxy-2-methyl-5-(3-phenyl-propoxy)-phenyl]-ethanone], greater than 300 nM; for `COc1c(Cl)c(C)c(C(C)=O)c(OCCNC2CCCC2)c1OCCCc1ccccc1` [Example 34c, 1-[3-Chloro-6-(2-cyclopentylamino-ethoxy)-4-methoxy-2-methyl-5-(3-phenyl-propoxy)-phenyl]-ethanone], 50 to 150 nM.
Turning to `COc1c(Cl)c(C)c(C(C)=O)c(OCCCN2CC[S+]([O-])CC2)c1OCCC(C)c1ccc(F)cc1` (centres unmarked) [Example 24, 1-{3-Chloro-5-[3-(4-fluoro-phenyl)-butoxy]-4-methoxy-2-methyl-6-[3-(1-oxo-thiomorpholin-4-yl)-propoxy]-phenyl}-ethanone], the EC50 was 50 to 150 nM.
The result for `COc1c(Cl)c(C)c(C(C)=O)c(OCCn2cncn2)c1OCCC(C)c1ccc(F)cc1` (centres unmarked) [Example 19, 1-[3-Chloro-5-[3-(4-fluorophenyl)-butoxy]-4-methoxy-2-methyl-6-(2-[1,2,4]-triazol-1-yl-ethoxy)-phenyl]-ethanone] reads 50 to 150 nM; that for `COc1c(Cl)c(C)c(C(C)=O)c(OCCN2CCOCC2)c1CCCC(C)c1ccc(F)cc1` (centres unmarked) [Example 31b, 1-(3-Chloro-5-(4-(4-fluorophenyl)pentyl)-4-methoxy-2-methyl-6-(2-morpholinoethoxy)phenyl)ethanone], 50 to 150 nM.
The result for `COc1c(Cl)c(C)c(C(C)=O)c(OCCN2CCC(F)CC2)c1OCCC(C)c1ccc(F)cc1` (centres unmarked) [Example 11, 1-{3-Chloro-5-[3-(4-fluoro-phenyl)-butoxy]-6-[2-(4-fluoro-piperidin-1-yl)-ethoxy]-4-methoxy-2-methyl-phenyl}-ethanone] reads 50 to 150 nM; that for `COc1cc(O)c(C(C)=O)c(OCCCCOc2ccccc2)c1` [reference compound], 150 to 300 nM; that for `CC(=O)Nc1ccc(C(C)=O)c(OCCCc2ccccc2)c1` [reference compound], greater than 300 nM.
For `COc1c(Cl)c(C)c(C(C)=O)c(OCCCN2CCS(=O)(=O)CC2)c1OCCC(C)c1ccc(F)cc1` (centres unmarked) [Example 23, 1-{3-Chloro-6-[3-(1,1-dioxo-thiomorpholin-4-yl)-propoxy]-5-[3-(4-fluoro-phenyl)-butoxy]-4-methoxy-2-methyl-phenyl}-ethanone] the value was less than 50 nM.
Consider `COc1c(Cl)c(C)c(C(C)=O)c(OCCN2CCC(=O)CC2)c1OCCC(C)c1ccc(F)cc1` (centres unmarked) [Example 15, 1-{3-Chloro-5-[3-(4-fluoro-phenyl)-butoxy]-6-[2-(4-oxo-piperidin-1-yl)-ethoxy]-4-methoxy-2-methyl-phenyl}-ethanone], for which the EC50 was less than 50 nM.
For `CCCC(=O)c1ccc(NC(C)=O)cc1OCCCc1ccccc1` [reference compound] the value was greater than 300 nM; for `COc1c(Cl)c(C)c(C(C)=O)c(OCCN2CCC(F)(F)CC2)c1OCCC(C)c1ccc(F)cc1` (centres unmarked) [Example 16, 1-{3-Chloro-6-[2-(4,4-difluoro-piperidin-1-yl)-ethoxy]-5-[3-(4-fluoro-phenyl)-butoxy]-4-methoxy-2-methyl-phenyl}-ethanone], 50 to 150 nM; for `COc1c(Cl)c(C)c(C(C)=O)c(OCCOc2cnccn2)c1OCCC(C)c1ccc(F)cc1` (centres unmarked) [Example 18b, 1-{3-Chloro-5-[3-(4-fluoro-phenyl)-butoxy]-4-methoxy-2-methyl-6-[2-(pyrazin-2-yloxy)-ethoxy]-phenyl}-ethanone], less than 50 nM.
For `COc1c(Cl)c(C)c(C(C)=O)c(OCCN2CC(=O)C2)c1OCCCc1ccccc1` [Example 39, 1-[3-Chloro-6-[2-(3-oxo-azetidin-1-yl)-ethoxy]-4-methoxy-2-methyl-5-(3-phenyl-propoxy)-phenyl]-ethanone] the value was greater than 300 nM; for `COc1c(Cl)c(C)c(C(C)=O)c(OCCN2CC[C@@H](F)C2)c1OCCC(C)c1ccc(F)cc1` (some centres unmarked) [Example 12, 1-{3-Chloro-5-[3-(4-fluoro-phenyl)-butoxy]-6-[2-(R-3-fluoro-pyrrolidin-1-yl)-ethoxy]-4-methoxy-2-methyl-phenyl}-ethanone], less than 50 nM; for `COc1c(Cl)c(C)c(C(C)=O)c(OCCN2CCOCC2)c1CCCCc1ccccc1` [Example 26b, 1-(3-Chloro-4-methoxy-2-methyl-6-(2-morpholinoethoxy)-5-5(4-phenylbutyl)phenyl)ethanone], less than 50 nM.

What is called EC50 is the concentration giving half of the maximal effect. Low readings indicate an effect from little substance, high ones a need for much substance.

Values taken from patent US8202513B2, “Aryl potassium channel blockers and uses thereof” (Bionomics Limited, priority 2007, dated 2012).
